Measurements from US6638921B1, “Pyridoxal-5-phosphate derivatives as HIV integrase inhibitors” (Pharmacor Inc., priority 2002, dated 2003).
Like-named read-outs stand apart in the source and are kept apart here.

Legend:
HIV-1 integrase = HIV-1 integrase (Human immunodeficiency virus type 1 group M subtype B, UniProt P12497); assay: HIV-1 integrase inhibition assay in vitro (radiolabeled duplex substrate, U5 end of HIV LTR); type: biochemical
Procedure: For the purpose of Table 1, the HIV-1 integrase inhibition assay was carried out following a known procedure (Burke, Jr. T. R. et al., J. Med. Chem. 38, 4171-4178 (1995)). A suitable radiolabeled duplex substrate corresponding to the U5 end of the HIV LTR was used.

MT-4 cell line = assay: Cytotoxicity assay in vitro (MTT, virus omitted); type: cell-based
Procedure: (§1) To evaluate the EC50 of our compounds, various drug concentrations are incubated with the infected cell for six days and then the metabolic activity of the cells is monitored by the MTT assay. (See A. J. Japour et al, Antimicrobial Agents and Chemotherapy, 37, 1095-1101, 1993 and R. Pauwels et al. Journal of Virological Methods, 20, 309-321, 1988).
(§2) We use the laboratory viral strain NL4.3 as wild type virus and the cell line used is MT-4 which is a T-cell line highly sensitive to HIV-1. We also use some WT clinical strains. To address the resistance issue we assay the inhibitors with NL4.3 mutants which are designed to be resistant to specific commercially available inhibitors. The following reagents were obtained through the AIDS Research and Reference Reagent Program, division of AIDS, NIAID, NIH: pNL4.3 from Dr. Malcolm Martin; MT-4 cell line from Dr. Douglas Richman. Wild type (WT) clinical strains were obtained from “Laboratoire de santé publique du Québec”.
The same MTT assay is used to evaluate the CCIC50 of our compounds except that the virus is omitted.

[1] = tested on: HIV-1 laboratory viral strain NL4.3; assay: Anti-viral assay in vitro (MTT, infected MT-4 cells); type: cell-based; details: reduce virus replication in cell culture by 50%, six days
Procedure: as §1, §2

[2] = IC50, concentration of drug required to reduce the enzyme activity by 50%
[3] = concentration of drug required to reduce the enzyme activity by 50%, read-out: IC50
[4] = Human immunodeficiency virus 1, MT4, 144 h

Compound	IC50 (HIV-1 integrase; [2])	CCIC50 (MT-4 cell line; human, 6 days)	IC50 (HIV-1 integrase; [3])	EC50 ([1]; read-out: EC50)	CCIC50 (MT-4 cell line)	EC50 [1, 4]
Cc1nc(N=Nc2ccc(S(=O)(=O)Nc3ccc(F)cc3)cc2)c(COP(=O)(O)O)c(C=O)c1O [Example 46, 6-[4-(4-Fluorophenylsulfamoyl)phenylazo]-pyridoxal-5-phosphate]	1.5 µM	32 µM	–	–	–	–
6-[4-(N-(2-E-Caprolactamyl)-N-isobutylsulfamoyl)phenylazo]-pyridoxal-5-phosphate Hydrochloride [Example 5]	–	–	0.6 µM	17 µM	>100 µM	–
Cc1nc(N=Nc2cccc(C(=O)NCC(C)C)c2)c(COP(=O)(O)O)c(C=O)c1O [Example 13, 6-[3-(Isobutylcarbamoyl)phenylazo]-pyridoxal-5-phosphate]	1.3 µM	90 µM	–	–	–	50 µM
Cc1nc(N=Nc2ccc(C#N)cc2)c(COP(=O)(O)O)c(C=O)c1O [Example 42, 6-(4-Cyanophenylazo)-pyridoxal-5-phosphate]	11.3 µM	>100 µM	–	–	–	–
Cc1nc(N=Nc2ccc(S(=O)(=O)Nc3ncccn3)cc2)c(COP(=O)(O)O)c(C=NO)c1O [Example 53, 6-[4-(2-Pyrimidylsulfamoyl)phenylazo]-pyridoxal-5-phosphate Oxime]	–	–	2 µM	–	–	15 µM
Cc1nc(N=Nc2ccccc2C(=O)O)c(COP(=O)(O)O)c(C=O)c1O [Example 48, 6-(2-Carboxyphenylazo)-pyridoxal-5-phosphate]	0.345 µM	>100 µM	–	–	–	> 20 µM
Cc1nc(N=Nc2cccc(C(=O)Nc3cccc4c3CCCN4)c2)c(COP(=O)(O)O)c(C=O)c1O [Example 37, 6-[3-(5-(1,2,3,4-Tetrahydroquinolyl)carbamoyl)phenylazo]-pyridoxal-5-phosphate]	3.3 µM	84 µM	–	–	–	26 µM
Cc1ccc(C(=O)O)cc1N=Nc1nc(C)c(O)c(C=O)c1COP(=O)(O)O [Example 38, 6-(5-Carboxy-2-methylphenylazo)-pyridoxal-5-phosphate]	2.3 µM	>100 µM	–	–	–	50 µM
Cc1nc(N=Nc2ccc(S(=O)(=O)Nc3ccon3)cc2)c(COP(=O)(O)O)c(C=O)c1O [Example 32, 6-[4-(3-Isoazolylsulfamoyl)phenylazo]-pyridoxal-5-phosphate]	–	–	3 µM	–	–	50 µM
Cc1nc(N=Nc2cccc(C(=O)O)c2C)c(COP(=O)(O)O)c(C=O)c1O [Example 1, 6-(3-Carboxy-2-methylphenylazo)-pyridoxal-5-phosphate]	1.2 µM	>100 µM	–	–	–	2 µM
Cc1nc(N=Nc2cccc(C(=O)Nc3ccncc3)c2)c(COP(=O)(O)O)c(C=O)c1O [Example 30, 6-[3-(4-Pyridylcarbamoyl)phenylazo]-pyridoxal-5-phosphate]	3.15 µM	87 µM	–	–	–	20 µM
Cc1nc(N=Nc2ccc(S(=O)(=O)N3CCCCC3)cc2)c(COP(=O)(O)O)c(C=O)c1O [Example 7, 6-[4-(1-Piperidinesulfonyl)phenylazo]-pyridoxal-5-phosphate]	2.5 µM	>100 µM	–	–	–	12.5 µM
Cc1nc(N=Nc2cccc(Cl)c2)c(COP(=O)(O)O)c(C=O)c1O [Example 34, 6-(3-Chlorophenylazo)-pyridoxal-5-phosphate]	–	–	2.6 µM	–	–	45 µM
Cc1nc(N=Nc2cc(C(=O)O)cc(C(=O)O)c2)c(COP(=O)(O)O)c(C=O)c1O [Example 22, 6-(3,5-Dicarboxyphenylazo)-pyridoxal-5-phosphate]	0.43 µM	>100 µM	–	–	–	–
Cc1nc(N=Nc2ccc(C(=O)NC(C)(C)C)cc2)c(COP(=O)(O)O)c(C=O)c1O [Example 11, 6-[4-(tert-Butylcarbamoyl)phenylazo]-pyridoxal-5-phosphate]	–	–	2.73 µM	–	–	–
Cc1nc(N=Nc2ccccc2[N+](=O)[O-])c(COP(=O)(O)O)c(C=O)c1O [Example 33, 6-(2-Nitrophenylazo)-pyridoxal-5-phosphate]	–	–	5.25 µM	–	–	33 µM
